Values quoted from earlier work in patent US6846809B2, “PEI: DNA vector formulations for in vitro and in vivo gene delivery” (Board of Regents, The University of Texas System, priority 2000, dated 2005).
Where a name gives a salt, the structure may show the parent alone. Read-outs that look alike come from different tables or passages of the source. *1 amine or outer side, *2 acyl side, *3 side chain or, on linkers, in order; H or OH if unused. Where a SMILES comes first, the peptide text is derived from it. Bridges are numbered along the chain shown (N, C = ends). Roman numbers before positions name the chains, in order. [ ]: non-standard residue; d: D form. Actinocin(9to1) = Cc1c2oc3c(C)ccc(C(=O)[*:1])c3nc-2c(C(=O)[*:2])c(N)c1=O; NMeV = CN[C@H](C(=O)O)C(C)C; Sar = CNCC(=O)O

Tests used:
[1] = test system: chronic myelogenous leukemia; conditions: previously untreated
multiple myeloma = conditions: oral administration
certain animal tumors = conditions: in vivo
[2] = test system: Hodgkin's Disease, testicular tumors, squamous cell cancers
[3] = mouse, in vivo

O=C(O)CCCc1ccc(N(CCCl)CCCl)cc1 [Chlorambucil, 4-[bis(2-chlorethyl)amino] benzenebutanoic acid]
oral / gastrointestinal absorption (human, in vivo): rapidly and completely absorbed
terminal half-life (plasma): about 1.5 hours
time to peak plasma levels (single oral doses of about 0.6 mg/kg to about 1.2 mg/kg): within one hour

O.O=P1(N(CCCl)CCCl)NCCCO1 (centres unmarked) [Cyclophosphamide, 2H-1,3,2-Oxazaphosphorin-2-amine, N,N-bis(2-chloroethyl)tetrahydro-, 2-oxide, monohydrate]
stability in the gastrointestinal tract (human, in vivo): stable in the gastrointestinal tract
local tolerance (oral and parental routes): does not cause local vesication, necrosis, phlebitis or even pain

CS(=O)(=O)OCCCCOS(C)(=O)=O [Busulfan, 1,4-butanediol dimethanesulfonate]
adults obtaining hematologic remission [1]: Approximately 90%

N[C@@H](Cc1ccc(N(CCCl)CCCl)cc1)C(=O)O [Melphalan, 4-[bis(2-chloroethyl)amino]-L-phenylalanine]
patients showing a favorable response (multiple myeloma): about one third to one half

Cc1c2oc3c(C)ccc(C(=O)N[C@@H]4C(=O)N[C@H](C(C)C)C(=O)N5CCC[C@H]5C(=O)N(C)CC(=O)N(C)[C@@H](C(C)C)C(=O)O[C@@H]4C)c3nc-2c(C(=O)N[C@@H]2C(=O)N[C@H](C(C)C)C(=O)N3CCC[C@H]3C(=O)N(C)CC(=O)N(C)[C@@H](C(C)C)C(=O)O[C@@H]2C)c(N)c1=O [Actinomycin D] (I: T[dV]P[Sar][NMeV] / II: T[dV]P[Sar][NMeV]; ester I:1-I:C, II:1-II:C; linker I:N-II:N via Actinocin(9to1))
blood-brain barrier passage (human, in vivo): does not pass the blood-brain barrier
fraction of dose excreted in the urine (human, in vivo): 10%
fraction of dose excreted intact into the bile (human, in vivo): Half of the dose
half-life (human, in vivo): about 36 hours

CC[C@]1(O)C[C@@H]2CN(CCc3c([nH]c4ccccc34)[C@@](C(=O)OC)(c3cc4c(cc3OC)N(C)[C@H]3[C@@](O)(C(=O)OC)[C@H](OC(C)=O)[C@]5(CC)C=CCN6CC[C@]43[C@@H]65)C2)C1 [Vinblastine]
fraction of dose recovered in the feces (after biliary excretion): about 10%
distribution into blood cells (human, in vivo): extensively concentrated in platelets
fraction of dose excreted in the urine (human, in vivo): Approximately 15%

O=NN(CCCl)C(=O)NC1CCCCC1 [Lomustine, 1-(2-chloro-ethyl)-3-cyclohexyl-1 nitrosourea]
serum half-life of the metabolites (human, in vivo): 16 hours to about 2 days
radioactivity excreted as degradation products within 24 hours (oral radioactive drug, about 30 mg/m^2 to 100 mg/m^2): about half

COc1cccc2c1C(=O)c1c(O)c3c(c(O)c1C2=O)C[C@@](O)(C(C)=O)C[C@@H]3O[C@H]1C[C@H](N)[C@H](O)[C@H](C)O1 [Daunorubicin, 5,12-Naphthacenedione, (8S-cis)-8-acetyl-10-[(3-amino-2,3,6-trideoxy-a-L-lyxo-hexanopyranosyl)oxy]-7,8,9,10-tetrahydro-6,8,11-trihydroxy-10-methoxy-, hydrochloride]
elimination half-life (human, in vivo): about 19 hours
fraction secreted into the bile (human, in vivo): about 40%
half-life of distribution (human, in vivo): 45 min
oral / gastrointestinal absorption (human, in vivo): poor

N[C@H](Cc1ccc(N(CCCl)CCCl)cc1)C(=O)O [medphalan]
activity compared with the L-isomer (certain animal tumors): less active against certain animal tumors

CC[C@]1(O)C[C@H]2CN(CCc3c([nH]c4ccccc34)[C@@](C(=O)OC)(c3cc4c(cc3OC)N(C=O)[C@H]3[C@@](O)(C(=O)OC)[C@H](OC(C)=O)[C@]5(CC)C=CCN6CC[C@]43[C@@H]65)C2)C1 [Vincristine]
distribution into blood cells (human, in vivo): extensively concentrated in platelets

CO[C@@]12[C@H](COC(N)=O)C3=C(C(=O)C(C)=C(N)C3=O)N1C[C@@H]1N[C@@H]12 [Mitomycin]
time required to reduce the serum concentration by about 50% (30 mg bolus injection): 17 min
fraction of dose excreted in the urine (human, in vivo): Approximately 10%

COc1cccc2c1C(=O)c1c(O)c3c(c(O)c1C2=O)C[C@@](O)([C@H](C)O)C[C@@H]3O[C@H]1C[C@H](N)[C@H](O)[C@H](C)O1 [daunorubicinol]
half-life (human, in vivo): about 27 hours

Bleomycin
time to improvement ([2]; Hodgkin's Disease and testicular tumors): ≤ 2 weeks
time to improvement ([2]; squamous cell cancers): ≤ 3 weeks
concentrations in hematopoietic tissue / bone marrow [3]: low concentrations
concentrations in skin, lungs, kidneys, peritoneum, and lymphatics [3]: high concentrations
fraction of dose excreted in the urine (human, in vivo): 60-70%

COc1cccc2c1C(=O)c1c(O)c3c(c(O)c1C2=O)C[C@@](O)(C(=O)CO)C[C@@H]3O[C@H]1C[C@H](N)[C@H](O)[C@H](C)O1 [Doxorubicin, 5,12-Naphthacenedione, (8s-cis)-10-[(3-amino-2,3,6--trideoxy-a-L-lyxo-hexopyranosyl)oxy]-7,8,9,10-tetrahydro-6,8,11-trihydroxy-8-(hydroxyacetyl)-1-methoxy-hydrochloride]
elimination half-life (human, in vivo): about 30 hours
fraction of dose excreted in the urine (human, in vivo): a few percent
